Experimental data from patent publication US20220081412A1, “QUINOLINYL-PYRAZINE-CARBOXAMIDE COMPOUNDS AND USES THEREOF” (The Regents of the University of Michigan, priority 2018, published 2022).

System: MIA PaCa-2 cells
Test: Bru-seq analysis for nascent RNA synthesis (log2FC of genes, GSEA gene sets)
Format: cell-based, human
Settings: downregulated gene sets, 4 h, MIA PaCa-2 cells

Structure (SMILES): CCN(CC)CCCC(C)Nc1cnc(C(=O)Nc2cc(C)cc3cccnc23)cn1 (stereo not drawn) [J4, 5-((5-(diethylamino)pentan-2-yl)amino)-N-(6-methylquinolin-8-yl)pyrazine-2-carboxamide]
- NES HALLMARK_TGF_BETA_SIGNALING (HALLMARK): −1.256
- ES KEGG_ABC_TRANSPORTERS (KEGG): −0.412
- ES KEGG_ADHERENS_JUNCTION (KEGG): −0.158
- ES KEGG_ALANINE_ASPARTATE_AND_GLUTAMATE_METABOLISM (KEGG): −0.250
- ES KEGG_AMYOTROPHIC_LATERAL_SCLEROSIS_ALS (KEGG): −0.247
- ES KEGG_AXON_GUIDANCE (KEGG): −0.201
- ES KEGG_CALCIUM_SIGNALING_PATHWAY (KEGG): −0.324
- ES KEGG_CELL_ADHESION_MOLECULES_CAMS (KEGG): −0.231
- ES KEGG_CYTOSOLIC_DNA_SENSING_PATHWAY (KEGG): −0.247
- ES KEGG_DNA_REPLICATION (KEGG): −0.254
- ES KEGG_ECM_RECEPTOR_INTERACTION (KEGG): −0.201
- ES KEGG_HEDGEHOG_SIGNALING_PATHWAY (KEGG): −0.329
- ES KEGG_HOMOLOGOUS_RECOMBINATION (KEGG): −0.260
- ES KEGG_MISMATCH_REPAIR (KEGG): −0.375
- ES KEGG_NEUROACTIVE_LIGAND_RECEPTOR_INTERACTION (KEGG): −0.624
- ES KEGG_NUCLEOTIDE_EXCISION_REPAIR (KEGG): −0.241
- ES KEGG_PATHOGENIC_ESCHERICHIA_COLI_INFECTION (KEGG): −0.220
- ES KEGG_PURINE_METABOLISM (KEGG): −0.285
- ES KEGG_PYRIMIDINE_METABOLISM (KEGG): −0.256
- ES KEGG_RIG_I_LIKE_RECEPTOR_SIGNALING_PATHWAY (KEGG): −0.197
- ES KEGG_RNA_POLYMERASE (KEGG): −0.202
- ES KEGG_STARCH_AND_SUCROSE_METABOLISM (KEGG): −0.342
- ES KEGG_TGF_BETA_SIGNALING_PATHWAY (KEGG): −0.336
- ES KEGG_WNT_SIGNALING_PATHWAY (KEGG): −0.231
- NES KEGG_ABC_TRANSPORTERS (KEGG): −1.220
- NES KEGG_ADHERENS_JUNCTION (KEGG): −0.628
- NES KEGG_ALANINE_ASPARTATE_AND_GLUTAMATE_METABOLISM (KEGG): −0.732
- NES KEGG_AMYOTROPHIC_LATERAL_SCLEROSIS_ALS (KEGG): −0.838
- NES KEGG_AXON_GUIDANCE (KEGG): −0.829
- NES KEGG_CALCIUM_SIGNALING_PATHWAY (KEGG): −1.264
- NES KEGG_CELL_ADHESION_MOLECULES_CAMS (KEGG): −0.738
- NES KEGG_CYTOSOLIC_DNA_SENSING_PATHWAY (KEGG): −0.784
- NES KEGG_DNA_REPLICATION (KEGG): −0.912
- NES KEGG_ECM_RECEPTOR_INTERACTION (KEGG): −0.655
- NES KEGG_HEDGEHOG_SIGNALING_PATHWAY (KEGG): −0.982
- NES KEGG_HOMOLOGOUS_RECOMBINATION (KEGG): −0.820
- NES KEGG_MISMATCH_REPAIR (KEGG): −1.179
- NES KEGG_NEUROACTIVE_LIGAND_RECEPTOR_INTERACTION (KEGG): −1.955
- NES KEGG_NUCLEOTIDE_EXCISION_REPAIR (KEGG): −0.899
- NES KEGG_PATHOGENIC_ESCHERICHIA_COLI_INFECTION (KEGG): −0.782
- NES KEGG_PURINE_METABOLISM (KEGG): −1.277
- NES KEGG_PYRIMIDINE_METABOLISM (KEGG): −1.109
- NES KEGG_RIG_I_LIKE_RECEPTOR_SIGNALING_PATHWAY (KEGG): −0.724
- NES KEGG_RNA_POLYMERASE (KEGG): −0.669
- NES KEGG_STARCH_AND_SUCROSE_METABOLISM (KEGG): −1.006
- NES KEGG_TGF_BETA_SIGNALING_PATHWAY (KEGG): −1.284
- NES KEGG_WNT_SIGNALING_PATHWAY (KEGG): −0.992
- ES BRN2_01 (TFBT): −0.247
- ES CDPCR1_01 (TFBT): −0.259
- ES CDP_01 (TFBT): −0.301
- ES EN1_01 (TFBT): −0.276
- ES FOXJ2_02 (TFBT): −0.261
- ES GGCKCATGS_UNKNOWN (TFBT): −0.441
- ES HMEF2_Q6 (TFBT): −0.266
- ES HNF1_Q6 (TFBT): −0.266
- ES HOX13_01 (TFBT): −0.366
- ES IK1_01 (TFBT): −0.227
- ES IRF2_01 (TFBT): −0.324
- ES MEF2_02 (TFBT): −0.225
- ES MEF2_Q6_01 (TFBT): −0.220
- ES MEIS1BHOXA9_01 (TFBT): −0.320
- ES NKX3A_01 (TFBT): −0.267
- ES PAX8_01 (TFBT): −0.439
